“And” between values parts separate entries of the source, which are not always exact repeats. Identical values can stand only once. Like-named read-outs stand apart in the source and are kept apart here. Bridge positions count the residues as written; N and C are the ends. Square brackets hold non-standard residues; d marks the D form. Peptide text beside a SMILES is read from it. hArg = N=C(N)NCCCC[C@H](N)C(=O)O; Mpa = O=C(O)CCS
Tests used:
[1] = molecular target: T1, HEK293 cells stably expressing normal human αVβ3 (Homo sapiens, UniProt P05106+P06756); test: αVβ3-mediated cell adhesion to vitronectin; type: cell-based; details: HEK293, n=4
T1 construct: expressed in transfected cells; host or cells: HEK293
T1 sequence (P06756 31-889 limits assumed): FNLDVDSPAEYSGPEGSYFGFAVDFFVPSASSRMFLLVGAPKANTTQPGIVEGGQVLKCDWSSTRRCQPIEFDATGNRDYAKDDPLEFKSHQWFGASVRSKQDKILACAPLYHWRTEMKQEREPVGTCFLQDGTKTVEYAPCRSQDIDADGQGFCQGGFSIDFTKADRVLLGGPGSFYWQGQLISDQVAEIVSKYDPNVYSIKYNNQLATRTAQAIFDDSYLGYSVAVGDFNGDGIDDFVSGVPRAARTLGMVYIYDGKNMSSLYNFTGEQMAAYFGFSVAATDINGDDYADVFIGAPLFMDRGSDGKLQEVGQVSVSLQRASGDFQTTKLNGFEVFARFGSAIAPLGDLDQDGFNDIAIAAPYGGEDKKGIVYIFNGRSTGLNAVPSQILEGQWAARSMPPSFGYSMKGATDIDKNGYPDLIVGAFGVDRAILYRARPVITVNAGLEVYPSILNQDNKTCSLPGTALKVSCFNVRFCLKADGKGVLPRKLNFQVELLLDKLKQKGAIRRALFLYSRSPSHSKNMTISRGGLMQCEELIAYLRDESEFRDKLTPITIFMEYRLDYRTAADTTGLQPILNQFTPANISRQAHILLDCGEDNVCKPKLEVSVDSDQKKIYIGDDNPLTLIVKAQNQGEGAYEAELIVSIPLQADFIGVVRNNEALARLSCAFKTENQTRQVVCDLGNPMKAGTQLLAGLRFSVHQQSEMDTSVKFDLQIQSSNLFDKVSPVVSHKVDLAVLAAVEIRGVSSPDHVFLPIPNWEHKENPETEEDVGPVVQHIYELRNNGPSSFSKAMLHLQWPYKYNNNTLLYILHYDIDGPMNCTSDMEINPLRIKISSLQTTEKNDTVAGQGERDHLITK
T1 sequence (P06756 891-1048 partner limits assumed): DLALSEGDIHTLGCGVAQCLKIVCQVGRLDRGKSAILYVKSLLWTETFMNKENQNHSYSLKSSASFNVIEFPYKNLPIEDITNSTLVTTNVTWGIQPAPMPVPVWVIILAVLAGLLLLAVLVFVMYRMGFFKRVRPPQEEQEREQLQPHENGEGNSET
T1 sequence (P05106 27-788): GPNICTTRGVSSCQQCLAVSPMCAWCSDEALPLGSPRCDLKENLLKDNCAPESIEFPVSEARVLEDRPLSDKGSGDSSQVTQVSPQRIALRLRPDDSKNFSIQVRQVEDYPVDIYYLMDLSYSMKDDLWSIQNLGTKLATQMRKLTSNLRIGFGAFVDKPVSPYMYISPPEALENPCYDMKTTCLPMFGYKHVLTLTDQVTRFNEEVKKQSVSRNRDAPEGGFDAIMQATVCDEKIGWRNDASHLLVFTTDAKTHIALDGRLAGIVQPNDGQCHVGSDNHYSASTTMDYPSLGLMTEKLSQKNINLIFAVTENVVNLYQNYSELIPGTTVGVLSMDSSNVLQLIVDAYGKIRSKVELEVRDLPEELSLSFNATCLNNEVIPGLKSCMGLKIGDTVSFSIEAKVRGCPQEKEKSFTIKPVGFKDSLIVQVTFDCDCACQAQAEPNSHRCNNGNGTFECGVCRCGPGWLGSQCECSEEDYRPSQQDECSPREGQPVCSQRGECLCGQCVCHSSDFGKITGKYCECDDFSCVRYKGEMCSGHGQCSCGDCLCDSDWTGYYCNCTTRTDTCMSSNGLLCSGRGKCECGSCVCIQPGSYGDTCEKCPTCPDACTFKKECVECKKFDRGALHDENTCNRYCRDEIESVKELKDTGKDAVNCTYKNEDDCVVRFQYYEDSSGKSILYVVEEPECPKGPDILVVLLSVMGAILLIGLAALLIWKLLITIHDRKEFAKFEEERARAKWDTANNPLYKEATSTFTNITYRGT
Protocol: Washed platelets are prepared as per the primary screening assay, suspended in HBMT containing 1 mM MgCl2 (platelet adhesion to collagen) or 2 mM CaCl2/1 mM MgCl2 (platelet adhesion to fibrinogen) and adjusted to a count of 250×10^9/L. HEK293 cells stably expressing normal human αVβ3 or normal human αIIbβ3 are suspended in HBMT containing either 1 mM MgCl2 (HEK293 cells expressing αVβ3 for adhesion to vitronectin) or 2 mM CaCl2/1 mM MgCl2 (HEK293 cells expressing αIIbβ3 for adhesion to fibrinogen); the cell counts are adjusted to 10^6/mL. Polystyrene 96-well microtiter plates (Nunc) are coated with either fibrinogen (50 μg/mL), vitronectin (5 μg/mL), or collagen (33 μg/mL, rat tail type 1; Becton Dickinson) for 1 hour, and blocked with HBMT for at least 1 hour. Platelets and cells are treated with the compound of Example 27 of the current invention or 2-ethyl-7-(piperazin-1-yl)-5H-[1,3,4]thiadiazolo-[3,2-a]pyrimidin-5-one of U.S. Ser. No. 12/514,286 in the presence or absence of anti-α2β1 mAb 6F1, anti-αIIbβ3 mAb 10E5, anti-αIIbβ3 mAb 10E5+αVβ3 mAb 7E3, αVβ3-specific mAb LM609, or anti-αVβ3+αIIbβ3 mAb 7E3, for 15 minutes at 37° C. before being added to the microtiter wells. After adhering for 1 hour at either 22° C. (platelets) or 37° C. (cells), nonadherent platelets or cells are removed by washing 3 times with HBMT containing the same ion composition as the buffer used for adhesion. […] In other experiments, 8-chambered glass coverslips (Nunc) are coated with collagen (33 μg/mL) for 1 hour at 22° C. Washed platelets are allowed to adhere for 1 hour at 22° C. and the coverslips are stained with the Alexa-488-conjugated β3-specific mAb 7H2. Adherent platelets are imaged using a Zeiss LSM-510 confocal system with Axiovert 200 microscope (Carl Zeiss, Heidelberg, Germany) using a Plan-Apochromat 100/1.4 NA oil DIC objective.

purified αIIbβ3 = molecular target: T2, purified αIIbβ3 (Homo sapiens, UniProt P05106+P08514); test: Extension of purified αIIbβ3 in nanodiscs by negative staining electron microscopy; details: for shift of nanodisc-integrin length (NIL) frequency distribution: 1 hour at room temperature, at highest doses majority of NIL values 18 to 23 nm
T2 construct: αIIbβ3 is purified from outdated single donor platelet concentrates obtained from the New York Blood Center; tissue New York Blood Center; host or cells: outdated single donor platelet concentrates
T2 sequence (P08514 32-887 limits assumed): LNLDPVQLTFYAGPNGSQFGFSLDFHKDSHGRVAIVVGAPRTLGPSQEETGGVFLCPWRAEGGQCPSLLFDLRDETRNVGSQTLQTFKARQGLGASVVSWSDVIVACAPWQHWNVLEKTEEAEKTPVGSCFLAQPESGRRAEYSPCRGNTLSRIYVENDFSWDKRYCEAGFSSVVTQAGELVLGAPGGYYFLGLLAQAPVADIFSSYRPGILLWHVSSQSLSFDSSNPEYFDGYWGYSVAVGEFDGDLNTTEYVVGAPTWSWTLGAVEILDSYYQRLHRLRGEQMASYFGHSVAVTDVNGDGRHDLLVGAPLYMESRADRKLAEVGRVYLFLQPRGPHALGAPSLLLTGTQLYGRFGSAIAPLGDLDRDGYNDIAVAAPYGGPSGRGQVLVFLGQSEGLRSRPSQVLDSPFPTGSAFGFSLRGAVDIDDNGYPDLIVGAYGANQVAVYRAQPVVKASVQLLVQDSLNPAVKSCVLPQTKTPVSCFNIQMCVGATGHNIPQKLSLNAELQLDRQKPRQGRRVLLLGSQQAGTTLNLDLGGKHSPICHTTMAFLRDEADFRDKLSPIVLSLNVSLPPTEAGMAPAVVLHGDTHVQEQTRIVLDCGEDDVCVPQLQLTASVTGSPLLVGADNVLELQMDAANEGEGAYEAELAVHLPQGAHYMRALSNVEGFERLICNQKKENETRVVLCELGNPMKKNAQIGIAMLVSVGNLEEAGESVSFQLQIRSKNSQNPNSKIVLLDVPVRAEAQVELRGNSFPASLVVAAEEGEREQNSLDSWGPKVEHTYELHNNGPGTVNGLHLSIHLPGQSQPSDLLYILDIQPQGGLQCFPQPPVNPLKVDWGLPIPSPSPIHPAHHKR
T2 sequence (P08514 891-1039 partner limits assumed): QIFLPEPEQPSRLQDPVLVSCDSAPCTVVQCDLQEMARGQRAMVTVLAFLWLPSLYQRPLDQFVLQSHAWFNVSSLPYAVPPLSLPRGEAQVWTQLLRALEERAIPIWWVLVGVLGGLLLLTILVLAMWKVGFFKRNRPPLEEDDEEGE
T2 sequence (P05106 27-788): as the sequence (P05106 27-788) above
Protocol: In brief, the His-tagged membrane scaffold protein is prepared as a recombinant protein in E. coli and purified by Nickel affinity chromatography and anion exchange chromatography. Final assembly consists of solubilizing an equimolar mixture of 1,2-dimyristoyl-sn-glycero-3-phosphocholine and 1,2-dimyristoyl-sn-glycero-3-phospho-(1′-rac-glycerol) in octylglucoside and cholate and then adding the purified αIIbβ3. The detergents are removed with macroporous polymeric beads (Bio-Bead SM-2) and then the αIIbβ3 nanodiscs are separated from the empty nanodiscs by gel filtration.
αIIbβ3 nanodiscs are treated with eptifibatide, tirofiban, 2-ethyl-7-(piperazin-1-yl)-5H-[1,3,4]thiadiazolo-[3,2-a]pyrimidin-5-one of U.S. Ser. No. 12/514,286, or the compound of Example 27 of the current invention for 1 hour at room temperature at concentrations up to 100 μM for 2-ethyl-7-(piperazin-1-yl)-5H-[1,3,4]thiadiazolo-[3,2-a]pyrimidin-5-one (a compound claimed in U.S. Ser. No. 12/514,286) and at concentrations up to 10 μM for 2-amino-N-(3-(5-oxo-7-(piperazin-1-yl)-5H-[1,3,4]thiadiazolo[3,2-a]pyrimidin-2-yl)phenyl)acetamide of Example 27. Samples are loaded onto carbon-coated copper grids that are glow-discharged by a carbon coating unit (Edwards; Crowley, UK), and then stained with 2% uranyl acetate, followed by drying. Imaging of αIIbβ3 nanodiscs is performed using a JOEL JEM 100CX transmission electron microscope (Jeol Ltd; Tokyo, Japan) at 80 kV and magnifications of 33,000× and 50,000×. Individual nanodiscs containing αIIbβ3 are manually selected for analysis using Image J (NIH, Bethesda, Md.). The distance from the bottom of the nanodisc to the height of the αIIbβ3 complex (nanodisc-integrin length; NIL) is measured as an indicator of integrin extension. The frequency distribution of NIL values is then analyzed for untreated αIIbβ3 nanodiscs and αIIbβ3 nanodiscs in the presence of different compounds.

platelets [2] = test: Platelet adhesion assay: calcein-labeled platelets on fibrinogen-coated wells; type: cell-based; details: Homo sapiens, mean±SD
Protocol: Thirty microliters of human fibrinogen (50 μg/mL) in Tris/saline (100 mM NaCl, 50 mM Tris/HCl, pH 7.4; American Diagnostica, Stamford, Conn.) are added to black, clear-bottom, untreated polystyrene, nonsterile 384-well microtiter plate wells (Corning no. 3711; Acton, Mass.). […] An additional wash is performed using HBMT with 1 mM MgCl2 and 2 mM CaCl2. Calcein-labeled platelets (final concentration 1×10^11/L) are treated with selected Compounds of the Invention (final concentration of 100 μM, 30 μM, 10 μM or 1 μM) at 22° C. for 20 minutes. Thirty microliters of platelets are then added to the wells. After 1 hour of adhesion, wells are washed 3 times with HBMT-1 mM MgCl2/2 mM CaCl2 and the plates are read by a fluorescent microtiter plate reader (Envision; Perkin Elmer) to detect calcein fluorescence (490 nm excitation and 515 nm emission). Negative controls consist of wells containing platelets without compounds of the invention.

washed platelets [3] = test: Effect of Mg2+ concentration on platelet adhesion to fibrinogen; type: cell-based, human; details: 1, 20, 50 mM Mg2+
Protocol: Washed platelets in buffers containing 1 mM Ca^2+ plus 1 mM, 20 mM, or 50 mM Mg^2+ are added to wells pre-coated with fibrinogen (50 μg/ml) for 60 min at 22° C. After washing, adherent platelets are detected by acid phosphatase activity. Results are expressed as mean±SD (n=3 for the compound of Example 27 of the current invention and 2-ethyl-7-(piperazin-1-yl)-5H-[1,3,4]thiadiazolo-[3,2-a]pyrimidin-5-one (a compound disclosed and claimed in U.S. Ser. No. 12/514,286); n=2 for tirofiban).

washed platelets [4] = test: Effect of Mg2+ on washed platelet aggregation induced by thrombin receptor activating peptide (SFLLRN); type: cell-based, human; details: compound at 100 μM; SFLLRN 10 μM
Protocol: Washed platelets are resuspended in buffer containing fibrinogen (200 μg/ml) and 1 mM […] in combination with either 1 mM or 20 mM Mg^2+. Aggregation is induced by adding a thrombin receptor activating peptide (SFLLRN) at 10 μM.

[5] = molecular target: T3, HEK293 cells stably expressing normal human αIIbβ3 (Homo sapiens, UniProt P05106+P08514); test: αIIbβ3-mediated cell adhesion to fibrinogen; type: cell-based; details: same concentration as αVβ3 experiments (100 μM), n=4
T3 construct: expressed in transfected cells; host or cells: HEK293
T3 sequence (P08514 32-887 limits assumed): as the sequence (P08514 32-887 limits assumed) above
T3 sequence (P08514 891-1039 partner limits assumed): as the sequence (P08514 891-1039 partner limits assumed) above
T3 sequence (P05106 27-788): as the sequence (P05106 27-788) above
Protocol: Washed platelets are prepared as per the primary screening assay, suspended in HBMT containing 1 mM MgCl2 (platelet adhesion to collagen) or 2 mM CaCl2/1 mM MgCl2 (platelet adhesion to fibrinogen) and adjusted to a count of 250×10^9/L. HEK293 cells stably expressing normal human αVβ3 or normal human αIIbβ3 are suspended in HBMT containing either 1 mM MgCl2 (HEK293 cells expressing αVβ3 for adhesion to vitronectin) or 2 mM CaCl2/1 mM MgCl2 (HEK293 cells expressing αIIbβ3 for adhesion to fibrinogen); the cell counts are adjusted to 10^6/mL. Polystyrene 96-well microtiter plates (Nunc) are coated with either fibrinogen (50 μg/mL), vitronectin (5 μg/mL), or collagen (33 μg/mL, rat tail type 1; Becton Dickinson) for 1 hour, and blocked with HBMT for at least 1 hour. Platelets and cells are treated with the compound of Example 27 of the current invention or 2-ethyl-7-(piperazin-1-yl)-5H-[1,3,4]thiadiazolo-[3,2-a]pyrimidin-5-one of U.S. Ser. No. 12/514,286 in the presence or absence of anti-α2β1 mAb 6F1, anti-αIIbβ3 mAb 10E5, anti-αIIbβ3 mAb 10E5+αVβ3 mAb 7E3, αVβ3-specific mAb LM609, or anti-αVβ3+αIIbβ3 mAb 7E3, for 15 minutes at 37° C. before being added to the microtiter wells. After adhering for 1 hour at either 22° C. (platelets) or 37° C. […]

platelets [6] = test: Platelet aggregation assay: ADP-induced, platelet-rich plasma; type: cell-based, human; details: citrate anticoagulant, tested twice, read-out: IC50, ADP-induced platelet aggregation of citrated PRP
Protocol: […] After 30 seconds in the aggregometer (Kowa AF-10E; Tokyo, Japan) at 37° C. with stirring, ADP (5-20 μM) is added to induce aggregation and the light transmittance is measured for 8 minutes. The initial slopes of aggregation in the presence of different concentrations of the Compound being tested are used to generate an IC50.

αIIbβ3 = molecular target: T4, αIIbβ3 (Homo sapiens, UniProt P05106+P08514); test: Induction of ligand-induced binding site (LIBS) epitopes, flow cytometry of washed platelets; type: cell-based; details: eptifibatide 10 μM = 100%, Example 27 at 100 μM
T4 construct: Washed platelets are prepared in HBMT containing 2 mM CaCl2/1 mM MgCl2; endogenous in cells; host or cells: washed platelets
T4 sequence (P08514 32-887 limits assumed): as the sequence (P08514 32-887 limits assumed) above
T4 sequence (P08514 891-1039 partner limits assumed): as the sequence (P08514 891-1039 partner limits assumed) above
T4 sequence (P05106 27-788): as the sequence (P05106 27-788) above
Protocol: Washed platelets are prepared in HBMT containing 2 mM CaCl2/1 mM MgCl2. […] Fluorescently labeled monoclonal antibodies (PMI-1, LIBS-1, AP5, or 10E5; Alexa-488 conjugated; Invitrogen) are then added (20 μL, final concentration: 5 μg/mL) and incubated for 30 minutes at 22° C. in the dark, after which samples are diluted 1:10 in HBMT with CaCl2/MgCl2 for analysis by flow cytometry (FACSCalibur; Becton Dickinson, Franklin Lakes, N.J.). Antibody binding is reported as the geometric mean fluorescence intensity; nonspecific binding is determined by adding a 50-fold excess of unlabeled antibody before adding the labeled antibody. The net normalized fluorescence intensity in the presence of eptifibatide (10 μM, 30 min incubation at 22° C.) is assigned the value of 100%

SMILES: NCC(=O)Nc1cccc(-c2nn3c(=O)cc(N4CCNCC4)nc3s2)c1 [2-amino-N-(3-(5-oxo-7-(piperazin-1-yl)-5H-[1,3,4]thiadiazolo[3,2-a]pyrimidin-2-yl)phenyl)acetamide]
- inhibition at 10 µM ([1]; 10 μM): 6 ± 15%

SMILES: CCCCS(=O)(=O)N[C@@H](Cc1ccc(OCCCCC2CCNCC2)cc1)C(=O)O [tirofiban, reference compound]
- shift of nanodisc-integrin length (NIL) frequency distribution (purified αIIbβ3): shift the distribution in a dose-dependent manner
- inhibition at 10 µM (platelets [2]): 87 ± 9%
- increase in IC50 at higher Mg2+ concentrations comparable to that of Example 27 (washed platelets [3]): nor tirofiban shows a comparable increase in IC50

SMILES: CCc1nn2c(=O)cc(N3CCNCC3)nc2s1 [Example 1, 2-ethyl-7-(piperazin-1-yl)-5H-[1,3,4]thiadiazolo[3,2-a]pyrimidin-5-one]
- shift of nanodisc-integrin length (NIL) values / receptor extension (purified αIIbβ3; concentrations up to 100 μM): do not induce receptor extension
- effect of Mg2+ on the inhibition of SFLLRN-induced platelet aggregation (washed platelets [4]): much less evident
- inhibition at 100 µM [5]: 55 ± 5%
- IC50 (platelets [6]; Homo sapiens, Platelet): 12 µM
- IC50 (platelets [6]): 18 µM
- inhibition at 10 µM (platelets [2]): 22 ± 8%
- inhibition at 30 µM (platelets [2]; 30 μM, 5 separate experiments): 38 ± 10%
- inhibition at 100 µM (platelets [2]; 100 μM, 5 separate experiments): 70 ± 15%
- inhibition at 100 µM ([1]; 100 μM): 5 ± 7%
- AP5 binding, % of the amount in the presence of eptifibatide (αIIbβ3): 10±4% and 10%
- LIBS1 binding after 30 min, % of the amount in the presence of eptifibatide (αIIbβ3): 18±2%
- PMI-1 binding, % of the amount bound by platelets treated with eptifibatide (αIIbβ3): 73±9%

SMILES: N=C(N)NCCCC[C@@H]1NC(=O)CCSSC[C@@H](C(N)=O)NC(=O)[C@@H]2CCCN2C(=O)[C@H](Cc2c[nH]c3ccccc23)NC(=O)[C@H](CC(=O)O)NC(=O)CNC1=O [eptifibatide, reference compound] ([Mpa][hArg]GDWPC-NH2; disulfide 1-7)
- shift of nanodisc-integrin length (NIL) frequency distribution (purified αIIbβ3): shift the distribution in a dose-dependent manner
